Each compound was assayed against T1, EGFR (Homo sapiens, UniProt P00533) (assay: EGFR ELISA assay (in vitro kinase activity, EGFR captured from A431 cell lysate)).
T1 construct: Add 7 ug A431 cell lysate per well (EGFR source); endogenous in cells; host or cells: A431
Type: biochemical
Design: concentration or dose not given beside the values
Procedure, shortened: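 EGFR from A431 lysate was captured on plates coated with anti-EGFR antibody. Compounds were added 30 min before a 5 min phosphorylation with 3 µM ATP/5 mM MnCl2, which was stopped with 20 mM EDTA. Phosphotyrosine was detected with rabbit anti-phosphotyrosine, then a peroxidase-conjugated secondary and ABTS/H2O2, read at 410 nm.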

T1 sequence (P00533 25-1210): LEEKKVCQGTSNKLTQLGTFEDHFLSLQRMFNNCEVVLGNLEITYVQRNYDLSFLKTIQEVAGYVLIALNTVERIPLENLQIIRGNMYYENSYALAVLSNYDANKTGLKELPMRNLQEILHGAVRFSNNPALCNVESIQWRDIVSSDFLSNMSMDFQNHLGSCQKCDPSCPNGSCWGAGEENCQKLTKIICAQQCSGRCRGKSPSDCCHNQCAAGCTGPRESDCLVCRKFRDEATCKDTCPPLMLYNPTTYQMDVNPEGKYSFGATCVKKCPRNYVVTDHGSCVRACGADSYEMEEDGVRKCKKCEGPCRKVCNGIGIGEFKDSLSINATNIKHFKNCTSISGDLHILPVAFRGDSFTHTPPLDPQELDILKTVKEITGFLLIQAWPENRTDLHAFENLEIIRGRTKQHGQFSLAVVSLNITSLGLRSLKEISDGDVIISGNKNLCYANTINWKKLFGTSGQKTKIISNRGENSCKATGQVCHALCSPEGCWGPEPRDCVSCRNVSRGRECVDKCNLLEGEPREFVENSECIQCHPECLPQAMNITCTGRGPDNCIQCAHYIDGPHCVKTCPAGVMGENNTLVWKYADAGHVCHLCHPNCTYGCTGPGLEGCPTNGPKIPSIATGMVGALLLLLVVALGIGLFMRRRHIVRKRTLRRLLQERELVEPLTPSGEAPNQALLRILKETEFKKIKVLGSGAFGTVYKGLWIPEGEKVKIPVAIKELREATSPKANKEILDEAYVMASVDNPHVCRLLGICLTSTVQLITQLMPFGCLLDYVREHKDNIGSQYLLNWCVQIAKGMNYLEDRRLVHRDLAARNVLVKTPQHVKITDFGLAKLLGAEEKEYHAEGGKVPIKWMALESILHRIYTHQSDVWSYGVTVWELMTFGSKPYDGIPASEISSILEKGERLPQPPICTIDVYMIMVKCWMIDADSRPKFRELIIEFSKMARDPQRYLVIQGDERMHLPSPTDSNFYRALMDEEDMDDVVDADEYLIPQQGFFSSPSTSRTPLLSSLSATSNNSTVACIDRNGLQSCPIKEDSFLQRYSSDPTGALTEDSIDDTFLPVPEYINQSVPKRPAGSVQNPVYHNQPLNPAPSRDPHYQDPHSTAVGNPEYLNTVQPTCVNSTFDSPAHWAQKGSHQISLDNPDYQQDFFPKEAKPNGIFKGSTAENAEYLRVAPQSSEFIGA

In order of rising “Biochem EGFR %Inhibition” value:
1. O=C1Nc2ccc(S(=O)(=O)N3CCOCC3)cc2C1=Cc1ccc(F)cc1C(F)(F)F [10719/F11]  -66.3%
2. O=C1Nc2ccc(S(=O)(=O)Nc3ccc(C(F)(F)F)cc3)cc2C1=Cc1ccc(F)cc1C(F)(F)F [10719/E11]  -51.8%
3. COc1cc(OC)c(C=C2C(=O)Nc3ccc(CCCl)cc32)c(OC)c1 [10719/G06]  -45.7%
4. O=C1Nc2ccc(CCCl)cc2C1=Cc1ccc(F)cc1C(F)(F)F [10719/G11]  -44.1%
5. COc1cc(OC)c(C=C2C(=O)Nc3ccc(S(=O)(=O)Nc4ccc(C(F)(F)F)cc4)cc32)c(OC)c1 [10719/E06]  -42.0%
6. O=C1Nc2ccc(S(=O)(=O)Nc3ccc(C(F)(F)F)cc3)cc2C1=Cc1ccc(F)cc1Cl [10719/E09]  -33.1%
7. O=C1Nc2ccc(CCCl)cc2C1=Cc1ccc(F)cc1Cl [10719/G09]  -32.8%
8. O=C1Nc2ccc(S(=O)(=O)Nc3ccc(C(F)(F)F)cc3)cc2C1=Cc1cccc([N+](=O)[O-])c1 [10719/E10]  -32.4%
9. O=C1Nc2ccc(S(=O)(=O)N3CCOCC3)cc2C1=Cc1ccc(O)c(O)c1 [10719/F03]  -30.8%
10. O=C1Nc2ccc(CCCl)cc2C1=Cc1cccc([N+](=O)[O-])c1 [10719/G10]  -27.6%
11. COc1cc(OC)c(C=C2C(=O)Nc3ccc(S(=O)(=O)N4CCOCC4)cc32)c(OC)c1 [10719/F06]  -26.0%
12. Cc1c(Br)ccc2c1C(=Cc1ccc(F)cc1C(F)(F)F)C(=O)N2 [10719/C11]  -25.7%
13. CSc1ccc(C=C2C(=O)Nc3ccc(Br)c(C)c32)s1 [10720/C07]  -25.4%
14. O=C1Nc2c(Br)cc(Br)cc2C1=Cc1ncc[nH]1 [10720/A11]  -23.2%
15. Cc1cc(O)cc(O)c1C=C1C(=O)Nc2c(Br)cc(Br)cc21 [10720/A08]  -23.2%
16. Cc1c(Br)ccc2c1C(=Cc1ncc[nH]1)C(=O)N2 [10720/C11]  -21.9%
17. O=C1Nc2ccc(S(=O)(=O)Nc3ccc(C(F)(F)F)cc3)cc2C1=Cc1ccc(O)cc1 [10719/E07]  -18.4%
18. O=C1Nc2ccc(S(=O)(=O)N3CCOCC3)cc2C1=Cc1ccc(F)cc1Cl [10719/F09]  -17.7%
19. O=C1Nc2ccc(S(=O)(=O)N3CCOCC3)cc2C1=Cc1cccc([N+](=O)[O-])c1 [10719/F10]  -17.7%
20. Cc1c(Br)ccc2c1C(=Cc1ccccc1O)C(=O)N2 [10720/C05]  -15.3%
21. COc1ccc(C=C2C(=O)Nc3ccc(Br)c(C)c32)cc1OC [10720/C04]  -13.1%
22. Cc1cc(O)cc(O)c1C=C1C(=O)Nc2ccc(I)cc21 [10720/B08]  -12.6%
23. CNS(=O)(=O)c1ccc2c(c1)C(=Cc1ccc(N(C)C)cc1)C(=O)N2 [10719/D08]  -12.2%
24. CCOc1ccc(C=C2C(=O)Nc3ccc(CCCl)cc32)cc1OC [10719/G02]  -12.2%
25. CNS(=O)(=O)c1ccc2c(c1)C(=Cc1c(OC)cc(OC)cc1OC)C(=O)N2 [10719/D06]  -12.2%
26. CNS(=O)(=O)c1ccc2c(c1)C(=Cc1cccc([N+](=O)[O-])c1)C(=O)N2 [10719/D10]  -11.8%
27. Cc1c(Br)ccc2c1C(=Cc1ccccc1)C(=O)N2 [10720/C06]  -9.7%
28. O=C1Nc2ccc(CCCl)cc2C1=Cc1ccc(O)cc1 [10719/G07]  -8.1%
29. COc1ccc(C=C2C(=O)Nc3ccc(S(=O)(=O)Nc4ccc(C(F)(F)F)cc4)cc32)c(OC)c1 [10719/E04]  -7.4%
30. COc1ccc(C=C2C(=O)Nc3ccc(S(=O)(=O)N4CCOCC4)cc32)c(OC)c1 [10719/F04]  -6.0%
31. COc1cc(O)ccc1C=C1C(=O)Nc2c(Br)cc(Br)cc21 [10720/A03]  -5.3%
32. COc1ccc(C=C2C(=O)Nc3ccc(CCCl)cc32)c(OC)c1 [10719/G04]  -4.7%
33. O=C1Nc2c(Br)cc(Br)cc2C1=Cc1ccccc1O [10720/A05]  -4.4%
34. CNS(=O)(=O)c1ccc2c(c1)C(=Cc1ccc(F)cc1Cl)C(=O)N2 [10719/D09]  -3.1%
35. COc1ccc(O)c(C=C2C(=O)Nc3c(Br)cc(Br)cc32)c1 [10720/A10]  -2.7%
36. COc1ccc(C=C2C(=O)Nc3c(Br)cc(Br)cc32)cc1OC [10720/A04]  -1.8%
37. Cc1cc(O)cc(O)c1C=C1C(=O)Nc2ccc(Br)c(C)c21 [10720/C08]  -1.1%
38. CCOc1ccccc1C=C1C(=O)Nc2ccc(Br)c(C)c21 [10717/C02]  -0.4%
39. COc1cc(O)ccc1C=C1C(=O)Nc2ccc(Br)c(C)c21 [10720/C03]  0.9%
40. CNS(=O)(=O)c1ccc2c(c1)C(=Cc1ccc(O)cc1OC)C(=O)N2 [10720/D03]  0.9%
41. COc1ccc(O)c(C=C2C(=O)Nc3ccc(Br)c(C)c32)c1 [10720/C10]  2.0%
42. CCc1c(C)[nH]c(C=C2C(=O)Nc3ccc(CCCl)cc32)c1C [10719/G05]  4.0%
43. CCOc1cc(C=C2C(=O)Nc3c(Br)cc(Br)cc32)ccc1O [10720/A09]  8.6%
44. CCOc1ccc(C=C2C(=O)Nc3ccc(S(=O)(=O)NC)cc32)cc1OC [10719/D02]  9.8%
45. Cc1c(Br)ccc2c1C(=Cc1cccc([N+](=O)[O-])c1)C(=O)N2 [10719/C10]  10.7%
46. CNS(=O)(=O)c1ccc2c(c1)C(=Cc1c(F)cc(F)cc1F)C(=O)N2 [10720/D02]  11.1%
47. O=C1Nc2c(Br)cc(Br)cc2C1=Cc1c(F)cc(F)cc1F [10720/A02]  11.3%
48. CNS(=O)(=O)c1ccc2c(c1)C(=Cc1ccc(O)cc1)C(=O)N2 [10719/D07]  13.7%
49. CCOc1ccc(C=C2C(=O)Nc3ccc(S(=O)(=O)N4CCOCC4)cc32)cc1OC [10719/F02]  14.8%
50. CNS(=O)(=O)c1ccc2c(c1)C(=Cc1ccc(OC)cc1OC)C(=O)N2 [10719/D04]  15.3%
51. COc1cccc(O)c1C=C1C(=O)Nc2ccc(I)cc21 [10717/B10]  16.1%
52. Cc1c(Br)ccc2c1C(=Cc1cccs1)C(=O)N2 [10717/C03]  18.0%
53. O=C1Nc2ccc(I)cc2C1=Cc1c(F)cc(F)cc1F [10720/B02]  18.4%
54. CCc1c(C)[nH]c(C=C2C(=O)Nc3ccc(S(=O)(=O)NC)cc32)c1C [10719/D05]  18.5%
55. O=C1Nc2ccc(S(=O)(=O)N3CCOCC3)cc2C1=Cc1ccc(O)cc1 [10719/F07]  20.1%
56. CCc1c(C)[nH]c(C=C2C(=O)Nc3ccc(S(=O)(=O)Nc4ccc(C(F)(F)F)cc4)cc32)c1C [10719/E05]  21.2%
57. O=C1Nc2ccc(I)cc2C1=Cc1ccccc1 [10720/B06]  21.2%
58. O=C1Nc2ccc(I)cc2C1=Cc1ncc[nH]1 [10720/B11]  22.4%
59. Cc1c(Br)ccc2c1C(=Cc1c(F)cc(F)cc1F)C(=O)N2 [10720/C02]  23.5%
60. COc1cc(O)ccc1C=C1C(=O)Nc2ccc(I)cc21 [10720/B03]  32.3%
61. CCc1c(C)[nH]c(C=C2C(=O)Nc3ccc(S(=O)(=O)N4CCOCC4)cc32)c1C [10719/F05]  35.0%
62. CN(C)c1ccc(C=C2C(=O)Nc3ccc(S(=O)(=O)Nc4ccc(C(F)(F)F)cc4)cc32)cc1 [10719/E08]  36.8%
63. CCOc1cc(C=C2C(=O)Nc3ccc(I)cc32)ccc1O [10720/B09]  37.6%
64. CCOc1ccc(C=C2C(=O)Nc3ccc(S(=O)(=O)Nc4ccc(C(F)(F)F)cc4)cc32)cc1OC [10719/E02]  40.0%
65. CSc1ccc(C=C2C(=O)Nc3c(Br)cc(Br)cc32)s1 [10720/A07]  42.5%
66. O=C1Nc2c(Br)cc(Br)cc2C1=Cc1ccccc1 [10720/A06]  44.7%
67. CCOc1cc(C=C2C(=O)Nc3ccc(Br)c(C)c32)ccc1O [10720/C09]  44.7%
68. COc1ccc(O)c(C=C2C(=O)Nc3ccc(I)cc32)c1 [10720/B10]  50.2%
69. COc1ccc(C=C2C(=O)Nc3ccc(I)cc32)cc1OC [10720/B04]  50.5%
70. CSc1ccc(C=C2C(=O)Nc3ccc(I)cc32)s1 [10720/B07]  52.0%
71. Cc1ccc(C=C2C(=O)Nc3ccc(I)cc32)s1 [10717/B07]  58.3%
72. O=C1Nc2ccc(I)cc2C1=Cc1ccccc1O [10720/B05]  58.4%
73. O=C1Nc2ccc(I)cc2C1=Cc1ccc(Br)cc1 [10717/B08]  60.5%
74. CN(C)c1ccc(C=C2C(=O)Nc3ccc(CCCl)cc32)cc1 [10719/G08]  65.4%
75. O=C1Nc2ccc(S(=O)(=O)Nc3ccc(C(F)(F)F)cc3)cc2C1=Cc1ccc(O)c(O)c1 [10719/E03]  73.0%
76. O=C1Nc2ccc(I)cc2C1=Cc1ccc[nH]1 [10717/B09]  78.3%
77. Cc1[nH]c(C=C2C(=O)Nc3ccc(I)cc32)c(Br)c1Br [10717/B11]  82.7%
78. O=C1Nc2ccc(CCCl)cc2C1=Cc1ccc(O)c(O)c1 [10719/G03]  89.5%
79. CN(C)c1ccc(C=C2C(=O)Nc3ccc(S(=O)(=O)N4CCOCC4)cc32)cc1 [10719/F08]  90.9%
80. CNS(=O)(=O)c1ccc2c(c1)C(=Cc1ccc(O)c(O)c1)C(=O)N2 [10719/D03]  95.7%

Reference: patent publication EP1247803A2, “Indolinone compounds suitable for modulation of protein kinases” (Sugen, Inc., priority 1996, dated 1998)
